# Reference: ChEMBL document CHEMBL1152491, “Synthesis and evaluation of antibacterial activities of andrographolide analogues” (2009)
# Active and inactive are the calls of the source. No cut-off for these calls is given here.
# Key:
# Pseudomonas aeruginosa [1] = assay: Antibacterial activity against Pseudomonas aeruginosa at 0.05 mg/disk after 25 hrs; assay type: functional
# Escherichia coli = assay: Antibacterial activity against Escherichia coli at 0.05 mg/disk after 25 hrs; assay type: functional
# Bacillus subtilis = assay: Antibacterial activity against Bacillus subtilis at 0.05 mg/disk after 25 hrs; assay type: functional
# Candida albicans = assay: Antifungal activity against Candida albicans at 0.05 mg/disk after 25 hrs; assay type: functional, organism-based
# Staphylococcus aureus [2] = assay: Antibacterial activity against Staphylococcus aureus at 0.05 mg/disk after 25 hrs; assay type: functional
# Pseudomonas aeruginosa [3] = assay: Growth inhibition of Pseudomonas aeruginosa PAO1 at 10 mM after 25 hrs; assay type: functional, organism-based
# Pseudomonas aeruginosa [4] = assay: Inhibition of Pseudomonas aeruginosa PAO1 quorum sensing assessed as inhibition of pycocyanin production at 0.1 mM after 18 hrs; assay type: functional, organism-based
# [5] = system: Pseudomonas aeruginosa PAO1; assay: Inhibition of Pseudomonas aeruginosa PAO1 quorum sensing assessed as inhibition of pycocyanin production at 10 mM after 18 hrs
# [6] = system: Pseudomonas aeruginosa PAO1; assay: Inhibition of Pseudomonas aeruginosa PAO1 quorum sensing assessed as suppression of protease production at 0.1 mM after 18 hrs by azocasein-based colorimetric method
# [7] = system: Pseudomonas aeruginosa PAO1; assay: Inhibition of Pseudomonas aeruginosa PAO1 quorum sensing assessed as suppression of protease production at 10 mM after 18 hrs by azocasein-based colorimetric method
# Staphylococcus aureus [8] = assay: Antibacterial activity against methicillin-resistant Staphylococcus aureus 5676 at 0.05 mg/disk after 25 hrs; assay type: functional
# Staphylococcus aureus [9] = assay: Antibacterial activity against methicillin-resistant Staphylococcus aureus 5677 at 0.05 mg/disk after 25 hrs; assay type: functional
# [10] = system: Pseudomonas aeruginosa PAO1; assay: Inhibition of Pseudomonas aeruginosa PAO1 quorum sensing assessed as inhibition of pycocyanin production at 1 mM after 18 hrs
# [11] = system: Pseudomonas aeruginosa PAO1; assay: Inhibition of Pseudomonas aeruginosa PAO1 quorum sensing assessed as suppression of protease production at 1 mM after 18 hrs by azocasein-based colorimetric method
# Pseudomonas aeruginosa [12] = assay: Growth inhibition of Pseudomonas aeruginosa PAO1 at 1 mM after 25 hrs; assay type: functional, organism-based
# Pseudomonas aeruginosa [13] = assay: Growth inhibition of Pseudomonas aeruginosa PAO1 assessed as population density at 1 mM after 15 hrs by atomic force microscopy; assay type: functional, organism-based
# Pseudomonas aeruginosa [14] = assay: Inhibition of Pseudomonas aeruginosa PAO1 biofilm formation cultivated on respiratory tack suction tube at 1 mM after 3 days by scanning electron microscopy; assay type: functional, organism-based
# Pseudomonas aeruginosa [15] = assay: Inhibition of Pseudomonas aeruginosa PAO1 biofilm formation cultivated on respiratory tack suction tube at 1 mM after 7 days by scanning electron microscopy; assay type: functional, organism-based
# Pseudomonas aeruginosa [16] = assay: Growth inhibition of Pseudomonas aeruginosa PAO1 assessed as survival rate at 538 ug/mL after 20 hrs; assay type: functional; conditions: PAO1, 20 h
# Pseudomonas aeruginosa [17] = assay: Growth inhibition of Pseudomonas aeruginosa PAO1 assessed as survival rate at 3.75 ug/mL after 20 hrs; assay type: functional; conditions: PAO1, 20 h
# Pseudomonas aeruginosa [18] = assay: Growth inhibition of Pseudomonas aeruginosa PAO1 assessed as survival rate at 0.017 ug/mL after 20 hrs; assay type: functional; conditions: PAO1, 20 h
Structure (SMILES),diameter of the inhibition zone (DIZ) (Pseudomonas aeruginosa [1]) [mm],diameter of the inhibition zone (DIZ) (Escherichia coli) [mm],diameter of the inhibition zone (DIZ) (Bacillus subtilis) [mm],Activity (Candida albicans),diameter of the inhibition zone (DIZ) (Staphylococcus aureus [2]) [mm],Activity (Pseudomonas aeruginosa [4]),Activity [6],diameter of the inhibition zone (DIZ) (Staphylococcus aureus [8]) [mm],diameter of the inhibition zone (DIZ) (Staphylococcus aureus [9]) [mm],Activity [10],Activity [11],Activity (Pseudomonas aeruginosa [12]),Activity (Pseudomonas aeruginosa [13]),Activity (Pseudomonas aeruginosa [14]),Activity (Pseudomonas aeruginosa [15]),other results
C=C1CC[C@@H]2[C@](C)(CO)[C@H](O)CC[C@@]2(C)[C@@H]1CC(C1=CCOC1=O)S(=O)(=O)[O-].[Na+] (stereo not given in full),<4,<4,<4,inactive,<4,inactive,Active,,,,,,,,,Activity (Pseudomonas aeruginosa [3]): inactive; Activity [5]: Active; Activity [7]: Active
C=C1CC[C@@H]2[C@](C)(CO)[C@H](O)CC[C@@]2(C)[C@@H]1C/C=C1/C(=O)OC[C@H]1OC(=O)/C=C/c1ccc([N+](=O)[O-])cc1,<4,<4,<4,inactive,8.3,Active,Active,8.1,6.4,Active,Active,,,,,
C=C1CC[C@@H]2[C@](C)(CO)[C@H](O)CC[C@@]2(C)[C@@H]1C/C=C1/C(=O)OC[C@H]1OC(=O)CCCCC1CCSS1 (stereo not given in full),<4,<4,<4,inactive,4.9,Active,Active,6.9,4.1,Active,Active,Active,Active,Active,Active,survival at 538 µg/mL (Pseudomonas aeruginosa [16]): 84%
C=C1CC[C@@H]2[C@](C)(CO)[C@H](O)CC[C@@]2(C)[C@@H]1C/C=C1/C(=O)OC[C@H]1O [ANDROGRAPHOLIDE],<4,<4,<4,,<4,,Active,,,,Active,Active,inactive,inactive,inactive,
CC[C@H]1OC(=O)[C@H](C)[C@@H](O[C@H]2C[C@@](C)(OC)[C@@H](O)[C@H](C)O2)[C@H](C)[C@@H](O[C@@H]2O[C@H](C)C[C@H](N(C)C)[C@H]2O)[C@](C)(O)C[C@@H](C)C(=O)[C@H](C)[C@@H](O)[C@]1(C)O [ERYTHROMYCIN],,,,,,,,,,,,,,,,survival at 3.75 µg/mL (Pseudomonas aeruginosa [17]): 93.5%
C=C1CC[C@@H]2[C@](C)(CO)[C@H](O)CC[C@@]2(C)[C@@H]1C/C=C1/C(=O)OC[C@H]1OC(=O)CN.Cl,<4,<4,<4,inactive,9.3,Active,Active,8.7,5.2,Active,Active,Active,Active,inactive,inactive,
C=C1CC[C@@H]2[C@](C)(CO)[C@H](O)CC[C@@]2(C)[C@@H]1C/C=C1/C(=O)OC[C@H]1OC(=O)CNC(=O)OC(C)(C)C,<4,<4,<4,inactive,10.2,Active,Active,8.4,7.6,Active,Active,,,,,
O=C(O)c1cn(C2CC2)c2cc(N3CCNCC3)c(F)cc2c1=O [CIPROFLOXACIN],,,,,,,,,,,,,,,,survival at 0.017 µg/mL (Pseudomonas aeruginosa [18]): 85%
